Experimental data: US4657856A (priority 1980, dated 1987)

Assays:
[1] = tested on: glutathione peroxidase produced from Mucor hiemalis YR-0929; test: substrate specificity of glutathione peroxidase (NADPH/glutathione reductase coupled assay, 340 nm); assay type: biochemical; details: hydroperoxide as substrate of the enzyme; cumene hydroperoxide = 100
Protocol: The reaction is illustrated by the following formulae (1) and (2): [drawing 1] wherein GSSG represents oxidized glutathione, NADPH represents reduced nicotinamide adenine dinucleotide phosphate […] and NADP represents nicotinamide adenine dinucleotide phosphate.
(1) Substrate: 30 mM Cumene hydroperoxide aqueous solution: 0.2 ml
(2) Buffer: 100 mM Phosphate buffer (pH 7.0) containing 4 mM EDTA: 1.5 ml
(3) Reduced glutathione: 10 mM Aqueous solution: 0.3 ml
(4) Sodium azide: 10 mM Aqueous solution: 0.3 ml
(5) NADPH*: 1.6 mM Aqueous solution: 0.3 ml
(6) Glutathione reductase solution: Prepared by diluting with 100 mM phosphate buffer (pH 7.0) to 1 u/ml: 0.3 ml
(7) Enzyme solution: 0.1 ml
This enzyme acts upon cumene hydroperoxide, t-butyl hydroperoxide, linolenic acid hydroperoxide, etc.

[2] = tested on: glutathione peroxidase produced from Mucor hiemalis YR-0929; test: inhibition of glutathione peroxidase enzymatic action; assay type: biochemical; details: 25° C., pH 7.0
Protocol: When reacted at 25° C. and pH 7.0, this enzymatic action is inhibited by the following substances.

[3] = inhibitor concentration 10^-3 M
[4] = inhibitor concentration 10^-4 M

Compound	Relative Activity (%) [1] [%]	Percent Inhibition (%) [2, 3] [%]	Percent Inhibition (%) [2, 4] [%]
CC(C)(C)OO [t-Butyl hydroperoxide]	175		
CCN1C(=O)C=CC1=O [N--Ethylmaleimide]		93	3
CC(C)(OO)c1ccccc1 [Cumene hydroperoxide]	100		
O=C(O)c1cc[c]([Hg][Cl])cc1 [PCMB, Parachloromercurybenzoate]		99	75
Linolenic acid hydroperoxide	98		
NC(=O)CI [Iodoacetamide]		16	1
